Laboratory results: ChEMBL document CHEMBL1136182, “Cage amines as the stopper inhibitors of cholinesterases” (Bioorg Med Chem Lett, 2003)

Legend:
[1] = biological target: Acetylcholinesterase (Electrophorus electricus) (UniProt O42275); experiment: Selectivity ratio of inhibition of acetylcholinesterase-AChE to that of inhibition of butyrylcholinesterase-BChE
Butyrylcholinesterase = Butyrylcholinesterase (Equus caballus, UniProt Q9N1N9); experiment: Inhibitory activity against Butyrylcholinesterase
Acetylcholinesterase = Acetylcholinesterase (Electrophorus electricus, UniProt O42275); experiment: Inhibitory activity against acetylcholinesterase
Acetylcholinesterase, sequence (O42275 whole entry): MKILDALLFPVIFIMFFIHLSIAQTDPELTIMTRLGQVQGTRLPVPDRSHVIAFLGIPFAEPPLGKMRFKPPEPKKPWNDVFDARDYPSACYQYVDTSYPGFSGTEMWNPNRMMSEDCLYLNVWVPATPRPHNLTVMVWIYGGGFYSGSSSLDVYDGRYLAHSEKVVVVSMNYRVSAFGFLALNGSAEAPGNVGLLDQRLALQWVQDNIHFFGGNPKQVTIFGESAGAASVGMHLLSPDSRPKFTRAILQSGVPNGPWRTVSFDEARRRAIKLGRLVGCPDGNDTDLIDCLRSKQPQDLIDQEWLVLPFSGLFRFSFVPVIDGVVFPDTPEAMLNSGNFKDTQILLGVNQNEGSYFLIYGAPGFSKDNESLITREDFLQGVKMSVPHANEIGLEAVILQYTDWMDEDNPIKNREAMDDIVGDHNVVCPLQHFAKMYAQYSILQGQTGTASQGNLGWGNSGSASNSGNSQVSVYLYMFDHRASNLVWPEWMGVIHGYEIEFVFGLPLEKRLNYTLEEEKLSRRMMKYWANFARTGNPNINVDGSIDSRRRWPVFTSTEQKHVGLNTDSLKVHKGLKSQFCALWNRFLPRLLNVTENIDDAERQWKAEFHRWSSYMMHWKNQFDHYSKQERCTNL

Butyrylcholinesterase, sequence (Q9N1N9 whole entry): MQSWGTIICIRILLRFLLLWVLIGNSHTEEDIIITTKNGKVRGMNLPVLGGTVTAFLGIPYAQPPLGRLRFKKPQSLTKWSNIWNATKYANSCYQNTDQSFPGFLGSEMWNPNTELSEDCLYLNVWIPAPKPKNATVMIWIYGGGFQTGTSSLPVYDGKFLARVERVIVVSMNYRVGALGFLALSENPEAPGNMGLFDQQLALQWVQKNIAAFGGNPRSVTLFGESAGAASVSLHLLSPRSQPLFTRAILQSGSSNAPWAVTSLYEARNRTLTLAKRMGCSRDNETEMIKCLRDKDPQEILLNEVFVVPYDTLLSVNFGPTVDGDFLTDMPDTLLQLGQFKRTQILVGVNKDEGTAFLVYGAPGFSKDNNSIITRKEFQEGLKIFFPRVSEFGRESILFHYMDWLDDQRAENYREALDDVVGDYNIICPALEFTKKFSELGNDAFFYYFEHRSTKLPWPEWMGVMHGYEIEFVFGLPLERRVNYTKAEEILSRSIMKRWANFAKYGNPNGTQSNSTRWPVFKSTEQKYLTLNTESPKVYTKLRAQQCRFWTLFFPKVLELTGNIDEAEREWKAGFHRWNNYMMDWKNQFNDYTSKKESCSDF
Acetylcholinesterase (Electrophorus electricus), sequence (O42275 24-633 limits assumed): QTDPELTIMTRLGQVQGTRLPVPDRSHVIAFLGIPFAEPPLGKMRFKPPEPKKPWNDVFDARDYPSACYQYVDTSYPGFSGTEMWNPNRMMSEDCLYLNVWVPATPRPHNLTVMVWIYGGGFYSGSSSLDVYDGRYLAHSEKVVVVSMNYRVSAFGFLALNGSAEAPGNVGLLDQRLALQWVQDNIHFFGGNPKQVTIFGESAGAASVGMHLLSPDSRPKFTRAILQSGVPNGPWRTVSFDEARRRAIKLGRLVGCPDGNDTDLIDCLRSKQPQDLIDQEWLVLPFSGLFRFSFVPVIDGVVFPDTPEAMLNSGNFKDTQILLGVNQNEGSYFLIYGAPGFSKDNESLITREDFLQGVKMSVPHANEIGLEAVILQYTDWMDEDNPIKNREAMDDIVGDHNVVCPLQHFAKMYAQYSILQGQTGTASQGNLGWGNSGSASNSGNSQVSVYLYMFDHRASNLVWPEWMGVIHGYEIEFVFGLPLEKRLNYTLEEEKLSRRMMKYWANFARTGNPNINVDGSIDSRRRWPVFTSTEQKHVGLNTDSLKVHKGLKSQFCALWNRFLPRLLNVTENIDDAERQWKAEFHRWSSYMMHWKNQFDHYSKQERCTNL

`COc1cc(CNC2C3N(Cc4cc(OC)cc(OC)c4)C4C(N2Cc2cc(OC)cc(OC)c2)N(Cc2cc(OC)cc(OC)c2)C2(CC2N3Cc2cc(OC)cc(OC)c2)N4Cc2cc(OC)cc(OC)c2)cc(OC)c1` (centres undefined) showed a Ratio [1] of 2.2, a Ki (Butyrylcholinesterase) of 60 nM and a Ki (Acetylcholinesterase) of 130 nM.
`c1cc2c(cc1CNC1C3N(Cc4ccc5c(c4)OCO5)C4C(N1Cc1ccc5c(c1)OCO5)N(Cc1ccc5c(c1)OCO5)C1(CC1N3Cc1ccc3c(c1)OCO3)N4Cc1ccc3c(c1)OCO3)OCO2` (centres undefined) showed a Ratio [1] of 1, a Ki (Butyrylcholinesterase) of 310 nM and a Ki (Acetylcholinesterase) of 320 nM.
`Clc1ccccc1CNC1C2N(Cc3ccccc3Cl)C3C(N1Cc1ccccc1Cl)N(Cc1ccccc1Cl)C1(CC1N2Cc1ccccc1Cl)N3Cc1ccccc1Cl` (centres undefined) was tested, and the Ratio [1] was 3.9, the Ki (Butyrylcholinesterase) was 10 nM and the Ki (Acetylcholinesterase) was 39 nM.
